Literature values in US12611407B2, “Gastro-resistant high-strength formulation containing posaconazole” (Alfred E. Tiefenbacher (GmbH & Co. KG), priority 2020, dated 2026).

Assays:
[1] = not given; remark: listed apart in the source

Row | aqueous solubility | water solubility compared with form I | stability of the crystalline form ([1]; normal storage conditions or specific stress conditions) | Structure (SMILES) | stability in an aqueous suspension compared with form I ([1]; aqueous suspension)
1 | low aqueous solubility |  |  | CC[C@@H]([C@H](C)O)n1ncn(-c2ccc(N3CCN(c4ccc(OC[C@@H]5CO[C@@](Cn6cncn6)(c6ccc(F)cc6F)C5)cc4)CC3)cc2)c1=O [Posaconazole] | 
2 |  | better water solubility |  | CC[C@@H]([C@H](C)O)n1ncn(-c2ccc(N3CCN(c4ccc(OC[C@@H]5CO[C@@](Cn6cncn6)(c6ccc(F)cc6F)C5)cc4)CC3)cc2)c1=O [form IV, posaconazole] | better stability in an aqueous suspension
3 |  | better water solubility | as stable as form I | CC[C@@H]([C@H](C)O)n1ncn(-c2ccc(N3CCN(c4ccc(OC[C@@H]5CO[C@@](Cn6cncn6)(c6ccc(F)cc6F)C5)cc4)CC3)cc2)c1=O [form Y, posaconazole] | 
